Test results published in patent US20240182492A1, “AZAHETEROARYL COMPOUND, PREPARATION METHOD THEREFOR, AND APPLICATION THEREOF” (SHANGHAI BLUERAY BIOPHARMA CO., LTD., priority 2021, published 2024).

Tests used:
[1] = tested on: trimethylation level of histone H3K27 in G401 cells; experiment: ELISA (H3K27 trimethylation) analysis in G401 cells; type: cell-based; settings: H3K27me3 normalized by H3
Protocol: Example 54: ELISA (H3K27 Trimethylation) Analysis
Representative compounds of the present disclosure are diluted in DMSO with 3-fold gradient, and 10 concentration gradients are tested per compound. The maximum testing concentration is 10 μM. The compound is diluted 200-fold into G401 cells cultured in 96-well plates (the final concentration of DMSO is 0.5%). After the cells are cultured for 72 hours, the trimethylation level of histone H3K27 is detected by ELISA method.
Histone extraction: compound-treated cells in a 96-well plate are washed 3 times with 1×PBS (10×PBS buffer (80 g NaCl (Sigma, Product No. S3014), 2 g KCl (Sigma, Product No. 60128), 14.4 g Na2HAPO4 (Sigma, Product No. S5136) and 2.4 g KH2PO4 (Sigma, Product No. P9791) are added to 1 L water, pH to 7.4), and 100 μL of 0.4N HCl is added to each well. The 96-well plate is placed at 4° C. and gently shaken for 2 hours to lyse the cells. The cell lysate is then neutralized with 80 μL of neutralization buffer (0.5M disodium hydrogen phosphate, pH 12.5, 2.5 mM DTT; 1% cocktail (Sigma, Product No. P8340) (mixing the cell lysate and neutralization buffer thoroughly).
ELISA detection method: the cell lysates are transferred in parallel to two 384-well assay plates (PerkinElmer, OptiPlate-384HB, Product No. 6007290). One plate is used to detect the trimethylation level of H3K27, and the other plate is used to measure the level of H3. PBS is adjusted to a final volume of 50 μL/well. The wells are coated overnight at 4° C. On the next day, the solution in the wells was discarded. TBST buffer (1 xTBS (10×TBS: 24.2 g Tris (Sigma, Product No. T6066) and 80 g NaCl (Sigma, Product No. S3014) are added to 1 L water, and pH is adjusted to 7.6 with HCl) and 0.1% Tween-20) is used to wash it 5 times, and the water is dried on absorbent papers. 70 μL of blocking buffer (TBST, 5% BSA) is added to the coated reaction wells, and the wells are incubated for 1 hour at room temperature. The blocking buffer was discarded, and the primary antibody is added (30 μL/well). The required primary antibodies are diluted with blocking buffer, and the dilution ratios were as follows: anti-H3K27me3 antibody (Cell Signaling Technology, Product No. 9733), 1:2000 dilution; anti-H3 antibody (Cell Signaling Technology, Product No. 4499), 1:10000 dilution. After adding the primary antibody, the wells are incubated at room temperature for 1 hour. After washing with TBST for 5 times, the water are dried. The secondary antibody (30 μL/well) is added to each reaction well, and the wells are incubated at room temperature for 1 hour. Secondary antibody (anti-rabbit antibody (Jackson ImmunoResearch, Product No. 111-035-003)) is used after dilution 2000-fold in blocking buffer. After 1 hour, it is washed with TBST and dried. 30 μL of ECL substrate (Pierce, Product No. 34080) is added to each well and centrifuged for 30 seconds at 2000 rpm. Signal of each sample is detected using Molecular Devices, SpectraMax. Data processing: H3K27 methylation readings are first normalized by H3 signal. 0.500 DM8)-treated sample is used as a control, and the inhibition percentage of the compound is calculated. The data is fitted to a dose-response curve using the GraphPad prisim5 program, obtaining the IC50 values of the test compounds.

[2] = target: T1, EED protein (full-length, His6 tag) binding to H3K27me3 polypeptide (Homo sapiens, UniProt O75530); experiment: AlphaScreen evaluation of blocking the binding of EED to H3K27Me3; settings: EED / biotinylated H3K27me3 peptide competition
T1 construct: The full-length EED protein (441 amino acids) with His6 tag
Protocol: Example 53: Evaluation of the Effect of the Compound in Blocking the Binding of EED to H3K27Me3 by AlphaScreen (a-Screening) Method
First, compound solutions with different concentration gradients are prepared. Compound powder is dissolved in DMSO to form mother liquor. 1.5 μL of the compound mother liquor is taken to 198.5 μL reaction buffer (25 mM HEPES (pH 8.0), 50 mM NaCl, 0.015% Tween 20, 0.5% BSA) and the solution is mix uniformly, and then 3-fold gradient dilution is performed with the above buffer containing 0.75% DMSO. 9 different test concentrations are set for the same compound. 5 μL of compounds with different concentration gradients was taken to ProxiPlate-384 Plus, White detection plate (PerkinElmer, 6008280), and 2 parallel replicates are set for each concentration gradient.
Next, a binding blocking reaction is performed. The full-length EED protein (441 amino acids) with His6 tag is diluted to 60 nM with the above buffer, and the biotinylated polypeptide fragment H3K27me3 (amino acids 19-33) (Biotinylated-H3K27me3) is diluted to 75 nM with the same buffer. 5 μL of 75 nM peptide fragments and 5 μL of 60 nM protein are transferred to the testing wells containing the compound respectively. The testing plate is sealed with a film, and is incubated for 30 minutes at room temperature.
Finally, AlphaScreen method is used for detection. Before use, nickel chelate acceptor beads and streptavidin donor beads (Perkin Elmer, product number 6760619M) are mixed into the above reaction buffer at a ratio of 1:1, and then 5 μL of the above pre-mixed testing solution is added to each testing well. The final concentration of the donor beads and acceptor beads is 5 μg/mL. The testing plate is covered with tin foil and placed at room temperature in the dark for 1 hour. Signals are read using an AlphaScreen detector on a Spectra max i3. The AlphaScreen signal is normalized according to the readings obtained from the positive control (maximum signal control) and negative control (minimum signal control) to give the inhibition rate of different concentrations of the compound. After that, non-linear regression analysis was performed with GraphPad Prism 5, and dose-response equation Y=Bottom+(Top−Bottom)/(1+10^((Log IC50−X)*HillSlope)) is used to make an inhibition curve, obtaining the IC50 value of each compound. […]

[3] = tested on: B-cell non-Hodgkin lymphoma cells KARPAS-422; experiment: Cell proliferation analysis, KARPAS-422, 13 days, CellTiter-Glo; type: cell-based, Human
Protocol: Example 55: Cell Proliferation Analysis
Human B-cell non-Hodgkin lymphoma cells KARPAS-422 S were cultured in culture flasks using standard cell culture conditions. The culture medium contains 15% fetal bovine serum (FBS, Invitrogen, product number 10099-141), 1% penicillin/streptomycin solution (P/S) RPMI-1640 (Invitrogen, product number 11875), and the culture flask is placed and cultured in a sterile incubator at 37° C., 95% relative humidity, and 5% CO2. In order to detect the effect of PRC2 inhibitors on cell proliferation, cells in the exponential growth phase were seeded into 96-well plates (Corning, product number 3904) at a density of 1×10^4 cells/well, and 100 μL of medium was added to each well. Subsequently, the compounds disclosed herein at different concentrations were added to the wells seeded with cells (9 concentration gradients were set for each compound, and the highest detection concentration was 10 μM, 3-fold gradient dilution), and 2 repeats in parallel were set for each treatment concentration. The final concentration of DMSO is 0.5%. Then the number of surviving cells was counted with Vi-CELL (Beckman Coulter) every 3-4 days. The cells counted each time were seeded into a new 96-well plate at the same density (1×10^4 cells/well). The wells were supplemented with fresh medium to 100 μL, and different concentrations of the compound were added at the same time. The cells were cultured until the 13th day, on which 100 μL of CellTiter-Glo (CellTiter-GloCellTiter-GloCellTiter-GloCTG) (Promega, Product No. G7573) was added to each well. The plate was placed for 10-20 minutes in the dark at room temperature, and Molecular Devices and SpectraMax i3X were used to read the luminous signal. The data were fitted to a dose-response curve using GraphPad prisim5 and the IC50 values of the tested compounds were obtained.

[4] = Homo sapiens, KARPAS-422, 312 h, Karpas-422, 13 days

T1 sequence (O75530 whole entry): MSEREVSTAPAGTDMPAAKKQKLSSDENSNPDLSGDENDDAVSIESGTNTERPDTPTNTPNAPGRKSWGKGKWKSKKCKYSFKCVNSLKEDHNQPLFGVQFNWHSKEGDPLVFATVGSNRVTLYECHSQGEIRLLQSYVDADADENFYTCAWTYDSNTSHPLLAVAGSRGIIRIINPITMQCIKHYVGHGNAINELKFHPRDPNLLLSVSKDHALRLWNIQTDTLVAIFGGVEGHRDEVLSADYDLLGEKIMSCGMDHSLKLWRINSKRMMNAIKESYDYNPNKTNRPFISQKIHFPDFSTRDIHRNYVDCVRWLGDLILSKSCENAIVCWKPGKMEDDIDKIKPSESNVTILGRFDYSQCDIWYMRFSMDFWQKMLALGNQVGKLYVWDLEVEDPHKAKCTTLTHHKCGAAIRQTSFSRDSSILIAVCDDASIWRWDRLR

| Compound | IC50 [2] | IC50 [3, 4] | IC50 ([3]; Karpas-422, 13 days) | IC50 ([1]; Homo sapiens, G-401, 72 h) | IC50 ([1]; 72 hours) | IC50 ([1]; Homo sapiens, G-401, 72 hours) | IC50 ([3]; Homo sapiens, KARPAS-422, 312 h) |
| --- | --- | --- | --- | --- | --- | --- | --- |
| CCC(O)c1ccc(-c2cnc(NCc3c(F)ccc4c3CCO4)n3cnnc23)c2ncnn12 (stereo not drawn) [1-(8-(5-(((5-fluoro-2,3-dihydrobenzofuran-4-yl)methyl)amino)-[1,2,4]triazolo[4,3-c]pyrimidin-8-yl)-[1,2,4]triazolo[1,5-a]pyridin-5-yl)propan-1-ol] | 0.0065 µM | 0.0032 µM |  | 0.0026 µM |  |  |  |
| CC(O)(c1ccc(-c2cnc(NCc3c(F)ccc4c3CCO4)n3cnnc23)c2ncnn12)C(F)(F)F (single isomer, unassigned) [Compound c] | 0.0025 µM | 0.0095 µM |  | 0.0017 µM |  |  |  |
| CC(C)(O)c1c(F)cc(-c2cnc(NCc3c(F)ccc4c3CCO4)n3cnnc23)c2ncnn12 [2-(6-fluoro-8-(5-(((5-fluoro-2,3-dihydrobenzofuran-4-yl)methyl)amino)-[1,2,4]triazolo[4,3-c]pyrimidin-8-yl)-[1,2,4]triazolo[1,5-a]pyridin-5-yl)propan-2-ol] | 0.0057 µM | 0.0146 µM |  | 0.0059 µM |  |  |  |
| CC(O)(c1ccc(-c2cnc(NCc3c(F)ccc4c3CCO4)n3cnnc23)c2ncnn12)C(F)(F)F (stereo not drawn) [1,1,1-trifluoro-2-(8-(5-(((5-fluoro-2,3-dihydrobenzofuran-4-yl)methyl)amino)-[1,2,4]triazolo[4,3-c]pyrimidin-8-yl)-[1,2,4]triazolo[1,5-a]pyridin-5-yl)propan-2-ol] | 0.0048 µM | 0.0088 µM |  | 0.0019 µM |  |  |  |
| Cc1nc2c(-c3cnc(NCc4c(F)ccc5c4CCO5)n4cnnc34)cnc(C(C)(C)O)n2n1 [2-(8-(5-(((5-fluoro-2,3-dihydrobenzofuran-4-yl)methyl)amino)-[1,2,4]triazolo[4,3-c]pyrimidin-8-yl)-2-methyl-[1,2,4]triazolo[1,5-c]pyrimidin-5-yl)propan-2-ol] | 0.0084 µM | 0.0065 µM |  | 0.0006 µM |  |  |  |
| CC(O)(c1ccc(-c2cnc(NCc3c(F)ccc4c3CCO4)n3cnnc23)c2ncnn12)C(F)(F)F (single isomer, unassigned) [Compound d] | 0.0055 µM |  |  |  |  | 0.0047 µM | 0.0087 µM |
| OC1(c2ccc(-c3cnc(NCc4c(F)ccc5c4CCO5)n4cnnc34)c3ncnn23)CCC1 [1-[8-(5-{[(5-fluoro-2,3-dihydro-1-benzofuran-4-yl)methyl]amino]-[1,2,4]triazolo[4,3-c]pyrimidin-8-yl)-[1,2,4]triazolo[1,5-a]pyridin-5-yl]cyclobutan-1-ol] | 0.0055 µM | 0.0016 µM |  | 0.0003 µM |  |  |  |
| CCC(C)(O)c1ccc(-c2cnc(NCc3c(F)ccc4c3CCO4)n3cnnc23)c2ncnn12 (stereo not drawn) [2-(8-(5-(((5-fluoro-2,3-dihydrobenzofuran-4-yl)methyl)amino)-[1,2,4]triazolo[4,3-c]pyrimidin-8-yl)-[1,2,4]triazolo[1,5-a]pyridin-5-yl)butan-2-ol] | 0.0075 µM | 0.0052 µM |  | 0.0021 µM |  |  |  |

Second part, led by results:

| IC50 [2] | IC50 [3, 4] | IC50 ([3]; Karpas-422, 13 days) | Compound | IC50 ([1]; Homo sapiens, G-401, 72 h) | IC50 ([1]; 72 hours) | IC50 ([1]; Homo sapiens, G-401, 72 hours) | IC50 ([3]; Homo sapiens, KARPAS-422, 312 h) |
| --- | --- | --- | --- | --- | --- | --- | --- |
| 0.0054 µM | 0.0041 µM |  | CCC(C)(O)c1ccc(-c2cnc(NCc3c(F)ccc4c3CCO4)n3cnnc23)c2ncnn12 (single isomer, unassigned) [Compound a] | 0.0012 µM |  |  |  |
| 0.0062 µM | 0.0066 µM |  | CC(C)(O)c1ncc(-c2cnc(NCc3c(F)ccc4c3CCO4)n3cnnc23)c2ncnn12 [2-(8-(5-(((5-fluoro-2,3-dihydrobenzofuran-4-yl)methyl)amino)-[1,2,4]triazolo[4,3-c]pyrimidin-8-yl)-[1,2,4]triazolo[1,5-c]pyrimidin-5-yl)propan-2-ol] | 0.0028 µM |  |  |  |
| 0.0066 µM |  | 0.0054 µM | CCC(O)c1ccc(-c2cnc(NCc3c(F)ccc4c3CCO4)n3cnnc23)c2ncnn12 (single isomer, unassigned) [Compound f] |  | 0.0013 µM |  |  |
| 0.0047 µM |  |  | Fc1ccc2c(c1CNc1ncc(-c3cccn4ncnc34)c3nncn13)CCO2 [8-([1,2,4]triazolo[1,5-a]pyridin-8-yl)-N-((5-fluoro-2,3-dihydrobenzofuran-4-yl)methyl)-[1,2,4]triazolo[4,3-c]pyrimidin-5-amine] |  |  |  |  |
| 0.0035 µM |  |  | Cc1ccc(-c2cnc(NCc3c(F)ccc4c3[C@H]3C[C@H]3O4)n3cnnc23)c2ncnn12 [N-(((1aR,6bR)-5-fluoro-1a,6b-dihydro-1H-cyclopropeno[b]benzofuran-6-yl)methyl)-8-(5-methyl-[1,2,4]triazolo[1,5-a]pyridin-8-yl)-[1,2,4]triazolo[4,3-c]pyrimidin-5-amine] |  |  |  |  |
| 0.0089 µM |  |  | Cc1ccc(-c2cnc(NCc3c(F)ccc4c3CCO4)n3cnnc23)c2ncnn12 [N-((5-fluoro-2,3-dihydrobenzofuran-4-yl)methyl)-8-(5-methyl-[1,2,4]triazolo[1,5-a]pyridin-8-yl)-[1,2,4]triazolo[4,3-c]pyrimidin-5-amine] |  |  |  |  |
